# Activity calls are given as the source filed them.
# Assays:
# [1] = molecular target: T1, Carboxy-terminal domain RNA polymerase II polypeptide A small phosphatase 1 (Homo sapiens, UniProt Q9GZU7); test: CTDSP1 inhibitors, concentration-response, biochemical, absorbance readout, ultra-high-throughput screen actives (AID 540297); type: functional
# T1 sequence (Q9GZU7 whole entry): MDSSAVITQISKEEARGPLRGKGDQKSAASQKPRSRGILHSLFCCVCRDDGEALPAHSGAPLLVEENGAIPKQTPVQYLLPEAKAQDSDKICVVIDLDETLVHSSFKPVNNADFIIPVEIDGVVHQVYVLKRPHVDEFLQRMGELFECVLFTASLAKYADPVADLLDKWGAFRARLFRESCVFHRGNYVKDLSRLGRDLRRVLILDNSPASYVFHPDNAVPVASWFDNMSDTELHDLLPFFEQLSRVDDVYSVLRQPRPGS
# [2] = molecular target: T2, Replicative DNA helicase DnaB (Mycobacterium tuberculosis, UniProt P9WMR3); test: DnaB intein splicing inhibitors, dose response, biochemical, cell-free fluorescence (AID 449749); type: functional
# T2 sequence (P9WMR3 whole entry): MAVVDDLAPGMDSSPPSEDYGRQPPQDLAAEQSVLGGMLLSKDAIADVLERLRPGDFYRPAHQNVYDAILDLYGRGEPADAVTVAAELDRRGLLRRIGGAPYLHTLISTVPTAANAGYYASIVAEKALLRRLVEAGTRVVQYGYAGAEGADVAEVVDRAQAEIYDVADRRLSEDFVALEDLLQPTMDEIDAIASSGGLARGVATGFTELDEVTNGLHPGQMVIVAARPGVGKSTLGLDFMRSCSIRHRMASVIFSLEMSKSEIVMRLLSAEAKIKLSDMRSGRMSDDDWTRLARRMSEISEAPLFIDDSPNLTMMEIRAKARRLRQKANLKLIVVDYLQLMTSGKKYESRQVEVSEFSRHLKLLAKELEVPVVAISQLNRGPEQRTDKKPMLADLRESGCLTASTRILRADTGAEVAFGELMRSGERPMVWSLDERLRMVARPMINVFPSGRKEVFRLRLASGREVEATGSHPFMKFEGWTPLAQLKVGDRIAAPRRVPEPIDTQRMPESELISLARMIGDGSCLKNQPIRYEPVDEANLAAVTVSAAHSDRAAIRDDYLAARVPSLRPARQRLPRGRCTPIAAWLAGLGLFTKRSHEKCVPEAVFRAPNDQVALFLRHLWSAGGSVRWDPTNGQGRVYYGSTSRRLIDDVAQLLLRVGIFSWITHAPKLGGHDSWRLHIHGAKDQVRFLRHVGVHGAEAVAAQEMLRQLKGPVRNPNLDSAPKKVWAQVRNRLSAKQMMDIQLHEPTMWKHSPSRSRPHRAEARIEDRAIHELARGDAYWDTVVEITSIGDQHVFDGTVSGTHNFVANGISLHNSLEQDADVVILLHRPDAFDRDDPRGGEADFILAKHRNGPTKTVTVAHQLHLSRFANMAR
# Protein RecA = molecular target: T3, Protein RecA (Mycobacterium tuberculosis, UniProt P9WHJ3); test: Fluorescence Cell-Free Homogeneous Dose Retest to Identify Inhibitors of RecA-Intein Splicing Activity. [Related pubchem assays (depositor defined):AID2097, AID2223, AID489010, AID492950]; type: functional
# T3 sequence (P9WHJ3 whole entry): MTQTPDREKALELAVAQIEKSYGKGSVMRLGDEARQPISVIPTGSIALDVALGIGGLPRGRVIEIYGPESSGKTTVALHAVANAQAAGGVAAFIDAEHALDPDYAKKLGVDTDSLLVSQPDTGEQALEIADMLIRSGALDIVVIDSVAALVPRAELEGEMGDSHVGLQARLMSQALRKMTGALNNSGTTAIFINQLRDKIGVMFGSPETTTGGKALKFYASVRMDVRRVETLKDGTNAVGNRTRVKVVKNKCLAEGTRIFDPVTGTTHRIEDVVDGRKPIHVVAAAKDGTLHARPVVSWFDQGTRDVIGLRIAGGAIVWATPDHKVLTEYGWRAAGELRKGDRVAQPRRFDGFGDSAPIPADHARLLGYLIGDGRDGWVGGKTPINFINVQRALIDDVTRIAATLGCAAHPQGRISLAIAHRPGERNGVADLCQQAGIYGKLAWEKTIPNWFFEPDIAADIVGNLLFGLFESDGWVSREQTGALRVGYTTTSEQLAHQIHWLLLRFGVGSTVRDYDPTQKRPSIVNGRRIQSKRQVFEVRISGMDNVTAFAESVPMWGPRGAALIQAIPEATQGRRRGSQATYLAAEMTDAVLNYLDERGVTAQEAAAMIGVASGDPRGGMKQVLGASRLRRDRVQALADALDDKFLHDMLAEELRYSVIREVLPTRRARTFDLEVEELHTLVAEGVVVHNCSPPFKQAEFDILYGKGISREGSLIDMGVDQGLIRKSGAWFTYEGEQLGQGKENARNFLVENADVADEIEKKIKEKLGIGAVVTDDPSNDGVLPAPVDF
# H4 = test: Luminescence Cell-Based Dose Response HTS to Identify Activators of 5'UTR Stem-Loop Driven Prion Protein mRNA Translation in H4 Neuroglioblastoma Cells. [Related pubchem assays: 1829 (Project Summary), 1814 (Primary HTS)]; type: functional; conditions: Homo sapiens
# [3] = Luminescence Cell-Based Dose Response HTS to Identify Activators of Luciferase Translation or Activity in H4 […] Cells. [Related pubchem assays: 1829 (Project Summary), 1814 (Primary HTS)]; type: functional
# [4] = Luminescence Cell-Based Dose Confirmation HTS to Identify Activators of 5'UTR Stem-Loop Driven Alpha-Synuclein mRNA Translation in H4 Neuroglioblastoma Cells. [Related pubchem assays: 1829 (Project Summary), 1814 (Primary HTS)]; type: functional
# [5] = non-specific 3'UTR reporter inhibition in Clone20-Shn3RL – cell-based, Renilla luciferase, cherry-picked, counter-screen for Shn3 inhibitor project, dose response (AID 624133); type: functional
# [6] = loss of viability in HepG2 cells – cell-based, CellTiter-Glo, cherry-picked, cytotoxicity control for Shn3 inhibitor project, dose response (AID 624134); type: functional
# [7] = molecular target: T4, Heat shock factor protein 1 (Mus musculus, UniProt P38532); test: enhancement of HSF1-driven luciferase signal – cell-based, NIH3T3, luminescence, dose retest, confirmation (AID 435004); type: functional;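 also: stress induced by proteasome inhibitor MG132 added 30 min after compound; luciferase reporter driven by HSF1 response element in NIH3T3 cells; actives raise luminescence as potentiators of the MG132 stress response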
# T4 sequence (P38532 whole entry): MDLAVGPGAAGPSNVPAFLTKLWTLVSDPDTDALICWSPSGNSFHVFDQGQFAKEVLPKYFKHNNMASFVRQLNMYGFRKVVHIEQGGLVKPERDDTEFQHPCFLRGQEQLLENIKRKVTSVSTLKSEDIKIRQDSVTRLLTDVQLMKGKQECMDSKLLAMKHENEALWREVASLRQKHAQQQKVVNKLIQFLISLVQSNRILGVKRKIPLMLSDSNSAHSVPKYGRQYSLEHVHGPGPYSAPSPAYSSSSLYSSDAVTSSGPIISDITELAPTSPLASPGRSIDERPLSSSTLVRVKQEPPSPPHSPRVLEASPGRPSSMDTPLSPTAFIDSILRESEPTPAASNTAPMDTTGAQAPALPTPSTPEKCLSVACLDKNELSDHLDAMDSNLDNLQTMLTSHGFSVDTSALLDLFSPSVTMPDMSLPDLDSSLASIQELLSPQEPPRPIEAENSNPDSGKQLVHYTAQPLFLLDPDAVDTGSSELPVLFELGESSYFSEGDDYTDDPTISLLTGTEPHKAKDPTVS
# Cytochrome P450 2D6 = Cytochrome P450 2D6 (Homo sapiens, UniProt P10635);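 also: CYP2D6 member of a cytochrome P450 panel assay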
# Chain of Cytochrome P450 2D6 (P10635 whole entry): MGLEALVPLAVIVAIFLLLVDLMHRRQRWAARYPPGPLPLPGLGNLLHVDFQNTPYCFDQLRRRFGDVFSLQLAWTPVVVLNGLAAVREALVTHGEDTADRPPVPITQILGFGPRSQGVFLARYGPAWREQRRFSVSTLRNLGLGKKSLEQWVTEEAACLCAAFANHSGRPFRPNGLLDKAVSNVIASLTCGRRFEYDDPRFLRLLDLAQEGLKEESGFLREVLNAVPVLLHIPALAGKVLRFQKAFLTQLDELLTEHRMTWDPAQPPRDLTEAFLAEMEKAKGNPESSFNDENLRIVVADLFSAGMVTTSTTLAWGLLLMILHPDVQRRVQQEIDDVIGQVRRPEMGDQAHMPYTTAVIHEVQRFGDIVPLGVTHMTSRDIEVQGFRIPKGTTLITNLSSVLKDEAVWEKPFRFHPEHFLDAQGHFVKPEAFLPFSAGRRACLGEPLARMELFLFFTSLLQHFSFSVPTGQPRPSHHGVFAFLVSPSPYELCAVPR
# [8] = reduction of Shn3 3'UTR-driven luciferase in osteoblasts – cell-based, Clone20 osteoblasts, firefly luciferase, cherry-picked, dose response (AID 624132); type: functional;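 also: firefly luciferase luminescence from reporter carrying the Shn3 3'UTR in osteoblasts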
# [9] = P. falciparum Dd2 growth inhibitors, dose response, SYBR Green, cherry-picked samples (AID 1159567); type: functional, cell-based
# BJ [10] = test: cells; type: functional, cell-based; conditions: Homo sapiens
# BJ [11] = test: BJ-TERT fibroblast viability loss – cell-based, RAS-independent, luminescence, dose response (AID 1933); type: functional; conditions: Homo sapiens
# BJ [12] = test: BJ-TERT-LT-ST fibroblast viability loss – cell-based, RAS-independent, luminescence, dose response (AID 1935); type: functional; conditions: Homo sapiens;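 also: BJ fibroblasts immortalized with TERT plus LT and ST oncogenes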
# [13] = DRD fibroblast viability loss – cell-based, non-viral oncogenic, luminescence, dose response (AID 1934); type: functional; conditions: Homo sapiens
# [14] = Trypanosoma cruzi growth suppression in host cells – NIH3T3 host cells, beta-gal luminescence, confirmation (AID 2044); type: functional, cell-based;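 also: intracellular parasites grown in NIH/3T3 mouse fibroblasts as host cells; luminescent beta-galactosidase reporter signal from transgenic T. cruzi replicating inside host cells; inhibitors lower the luminescence signal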
# [15] = NIH-3T3 fibroblast cytotoxicity, dose response, cytotoxicity control, cell-based, fluorescence, Alamar Blue, secondary assay (AID 2327); type: functional;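 also: NIH-3T3 mouse fibroblasts cultured with fluconazole at 8 µg/mL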
# [16] = NIH3T3 cell viability loss – ATP luminescence, mouse fibroblasts, counter-screen, dose response (AID 2010); type: functional, cell-based;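 also: cells exposed to compound for about 90 hours before reading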
# [17] = fluconazole-exposed Candida albicans growth modulators – fluorescence, retest, confirmation (AID 2467); type: functional, cell-based
compound,measurement,setting,value
CC(O)/C=C/c1cccc[n+]1C (stereo unspecified),IC50,[1],12.2 µM (active)
CCOC(=O)CSCC(=O)N1N=C(c2cccs2)CC1c1ccc(F)cc1 (stereo unspecified),AC50,[2],17.7 µM (active)
same,EC50,Protein RecA,15.1 µM (active)
Cc1ccc(NC(=O)c2cnc(SCC(=O)NCC3CCCO3)n(C)c2=O)cc1 (stereo unspecified),AC50,[2],10.1 µM (active)
same,EC50,Protein RecA,30.9 µM (active)
Cc1ccc(-n2nc(C)c3c2OC(N)=C(C#N)C3c2ccc(F)cc2)cc1 (stereo unspecified),EC50,H4,> 120 µM (not active)
same,AC50,[2],14.2 µM (active)
same,EC50,[3],> 120 µM (not active)
same,EC50,Protein RecA,6.09 µM (active)
same,EC50,[4],> 120 µM (not active)
Cc1ccc(NC(=O)CN(C)C(=O)COc2cc(F)ccc2[N+](=O)[O-])cc1,AC50,[5],16.2 µM (active)
same,AC50,[6],> 70 µM (inactive)
COc1cc(NC(=O)Cc2cccs2)ccc1-n1cnnn1,EC50,[7],> 260 µM (inactive)
O=C(COc1ccc(-n2cnnn2)cc1)Nc1cccc(Cl)c1Cl,IC50,[1],6.36 µM (active)
Nc1nc(Br)c2c(F)cccc2c1-c1ccc(Cl)cc1,EC50,[7],> 260 µM (inactive)
same,AC50,Cytochrome P450 2D6,3.16 µM (inconclusive)
CCOC(=O)c1c(NC(=O)C2c3ccccc3Oc3ccccc32)sc(C(C)=O)c1C,AC50,[8],4.67 µM (active)
same,AC50,[5],13.6 µM (active)
same,AC50,[6],61.5 µM (active)
CC(C)C[C@H]1CNC(=S)N1CC1CCN(CC2CCC(C(C)(C)C)CC2)CC1 (stereo partly specified),AC50,[8],4.05 µM (active)
same,AC50,[5],4.48 µM (active)
same,AC50,[6],21.5 µM (active)
CC1CCC(NC(=O)Cn2c(=O)oc3cc(S(=O)(=O)N4CCCC4)ccc32)CC1 (stereo unspecified),IC50,[1],25.5 µM (active)
COc1ccc2c3c([nH]c2c1)[C@H](CO)N(C(=O)Nc1ccc(F)cc1)CC31CCN(C(=O)c2ccccn2)CC1,AC50,[9],12.4 µM (active)
S=C(Nc1ccccc1)Nc1ccc(Cl)cn1,EC50,[7],> 260 µM (inactive)
COc1ccc(NC(=O)N(C)C[C@H]2Oc3ccc(NC(=O)Nc4ccc(C(F)(F)F)cc4)cc3CC(=O)N([C@H](C)CO)C[C@@H]2C)cc1,AC50,[9],3.41 µM (active)
CCCc1n(CC(O)COC2CCCCC2)c2ccccc2[n+]1C (stereo unspecified),IC50,[1],14.3 µM (active)
CCC1=Nc2cc(C(=O)O)ccc2Sc2ccc(Cl)cc21,EC50,BJ [10],> 150 µM (not active)
same,EC50,BJ [11],> 150 µM (not active)
same,EC50,BJ [12],> 150 µM (not active)
same,EC50,[13],> 150 µM (not active)
CCOc1cc(/C=N/NC(=O)CSc2nnc(C)s2)ccc1OCc1ccccc1Cl,IC50,[1],10.1 µM (active)
Clc1ccc(SCc2csc(N3CCOCC3)n2)cc1,EC50,[7],51.8 µM (active)
C/C(CC(=O)Nc1cccnc1)=N\NC(=O)c1ccc([N+](=O)[O-])c(Cl)c1,AC50,[2],20.4 µM (active)
same,EC50,Protein RecA,4.18 µM (active)
O=C(N/N=C/c1ccc(OC(=O)c2cccs2)cc1)c1ccc(F)cc1,IC50,[1],> 80 µM (inactive)
COc1ccc(C(=O)C2C(c3ccc(-c4ccccc4[N+](=O)[O-])o3)NC(=O)NC2(O)C(F)(F)F)cc1 (stereo unspecified),AC50,[2],14.6 µM (active)
same,EC50,Protein RecA,21.5 µM (active)
CCCn1c(SCC(=O)c2cc(OC)ccc2OC)nnc1C(C)C,EC50,[7],62.4 µM (active)
Fc1ccc(NC(S)=Nc2cc(Cl)ccc2Cl)cc1,EC50,[7],> 260 µM (inactive)
CC(C)Oc1cccc(C(=O)C2CCCN(C(=O)c3csnn3)C2)c1 (stereo unspecified),AC50,[2],> 380 µM (inactive)
same,EC50,Protein RecA,> 380 µM (inactive)
C/C=C/c1ccc2c(c1)[C@@H]1[C@@H](CCN1C(=O)C1CCCC1)[C@H](CO)N2,AC50,[9],12.7 µM (active)
Cc1nn(-c2ccccc2)c2c1C(c1ccco1)C(C#N)=C(N)O2 (stereo unspecified),AC50,[2],5.88 µM (active)
same,EC50,Protein RecA,4.03 µM (active)
CCCN1C[C@@H](C)[C@H](OC)CN(C)C(=O)c2ccc(NC(=O)c3ccc4c(c3)OCO4)cc2OC[C@H]1C,AC50,[9],3.45 µM (active)
c1ccc(CN2C[C@@H]3N[C@H](C2)[C@H]3c2ccc(-c3ccncc3)cc2)cc1,AC50,[9],9.92 µM (active)
O=C1CCCN1CCCNc1c([N+](=O)[O-])nn(-c2ccc(Cl)cc2)[n+]1[O-],EC50,[14],0.562 µM (active)
same,EC50,[7],26.5 µM (active)
same,EC50,[15],17 µM (active)
same,EC50,[16],> 60 µM (inconclusive)
same,EC50,[17],> 38 µM (not active)
Cc1cc(C)c2nc3sc(C(=O)N4CCOCC4)c(N)c3cc2c1,EC50,BJ [10],2.64 µM (active)
same,EC50,BJ [11],2.52 µM (active)
same,EC50,BJ [12],26 µM (active)
same,EC50,[13],2.62 µM (active)
Cn1c(SCC(=O)NC(=O)NCc2ccco2)nnc1-c1ccccc1,IC50,[1],6.39 µM (active)
O=C(c1ccc(F)cc1)N1CC(=O)N2[C@H](CO)[C@@H](c3ccc(C#Cc4ccc(F)cc4)cc3)[C@@H]2C1,AC50,[9],5.03 µM (active)
CN(C)C1=NC[C@H](Cc2ccccc2)N1CCCCc1ccccc1,AC50,[8],8.01 µM (active)
same,AC50,[5],4.5 µM (active)
same,AC50,[6],58.9 µM (active)

# — ChEMBL document CHEMBL1201862, “PubChem BioAssay data set” (2004)
